Test results: patent publication US20180273528A1 (LES LABORATOIRES SERVIER, priority 2015, published 2018)

What was measured:
[1] = target: T1, His-TEV-DYRK1A Kinase domain (aa127-485) (Homo sapiens, UniProt Q13627); test: Kinase ADP assay (ADP Hunter), DYRK1A kinase domain; type: biochemical; conditions: 20 μM ATP
T1 construct: His-TEV-DYRK1A Kinase domain (aa127-485); His tag (N); TEV protease cleavage site (N)
Method in brief: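 Readout is ADP Hunter fluorescence at 590 nm, developed 20 min at 30 °C after the kinase step. That step ran 10 min at 30 °C in Hepes pH 7.4 (10 mM MgCl2, 1 mM EGTA, 0.02% Tween20) containing 20 μM ATP, 40 μM peptide and 20 nM enzyme plus compound.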

DYRK1B = target: T2, DYRK1B (Homo sapiens, UniProt Q9Y463); test: Kinase TR-FRET assay, DYRK1B; type: biochemical; conditions: full-length human kinase, 10 μM ATP
T2 construct: full-length human kinases from Carna Biosciences; purchased Carna Biosciences 04-131
Method in brief: (§1)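 Compounds tested at 0.1 nM to 30 μM in reaction buffer; reaction stopped with 10 mM EDTA. Phosphorylated MBP detected with 1 nM Europium-labelled anti-phospho-Thr232 antibody by TR-FRET.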

CLK1 = target: T3, CLK1 (Homo sapiens, UniProt P49759); test: Kinase TR-FRET assay, CLK1; type: biochemical; conditions: full-length human kinase, 10 μM ATP
T3 construct: full-length human kinases from Carna Biosciences; purchased Carna Biosciences 04-126
Protocol: Inhibition of the enzymatic activity of human kinases was evaluated in a Time-Resolved Fluorescence Resonance Energy Transfer (TR-FRET) assay in 384-well reaction plates. […] Test compounds of the invention were added in reaction buffer at a range of concentrations from 0.1 nM to 30 μM. Following addition of EDTA (Sigma E7889, 10 mM) to stop the reaction, Europium-labelled mouse monoclonal antibody recognizing phospho-Thr232 in MBP (Perkin Elmer TRF0201, 1 nM) was added.

CDK9 = target: T4, CDK9 (Homo sapiens, UniProt P50750); test: Kinase TR-FRET assay, CDK9; type: biochemical; conditions: full-length human kinase, 10 μM ATP
T4 construct: full-length human kinases from Carna Biosciences; purchased Carna Biosciences 04-110
Method in brief: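 Full-length human CDK9 (0.9 ng/μl) incubated 100 min at room temperature with 10 μM ATP, 100 nM ULight-MBP peptide and compound (0.1 nM–30 μM) in 50 mM HEPES pH 7.4, 1 mM EGTA, 10 mM MgCl2, 2 mM DTT, 0.01% Tween20. Stopped with 10 mM EDTA, then 1 nM Eu-anti-phospho-Thr232 MBP antibody added for 1 h. TR-FRET read at 665/620 nm with 340 nm excitation.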

DYRK1A [2] = target: T5, DYRK1A (Homo sapiens, UniProt Q13627); test: Kinase TR-FRET assay, DYRK1A; type: biochemical; set-up: full-length, wild-type human DYRK1A (NM_001396) with an HA tag; expressed in transfected cells; host or cells: human U2-OS osteosarcoma cells, transient transfection of a pcDNA3.1 plasmid; conditions: full-length human kinase, 10 μM ATP
Method in brief: as §1

DYRK1A [3] = target: T5, DYRK1A; test: Cellular DYRK1 autophosphorylation assay in U2-OS cells; type: cell-based; set-up: full-length, wild-type human DYRK1A (NM_001396) with an HA tag; expressed in transfected cells; host or cells: human U2-OS osteosarcoma cells, transient transfection of a pcDNA3.1 plasmid; conditions: U2-OS cells transfected with HA-tagged human DYRK1A, 5 hours exposure; read-out: IC50 (μM) P-Ser520-Dyrk1A -Cell assay
Method in brief: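 IC50 derived from dose-response curves of phospho-Ser520-DYRK1A (blots normalised to total DYRK1A), quantified by either immunoblotting with chemiluminescence or Mesoscale electrochemiluminescent ELISA. Compounds applied to U2-OS cells across several concentrations for 5 hours.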

T3 sequence (P49759 1-526 isoform P49759-3): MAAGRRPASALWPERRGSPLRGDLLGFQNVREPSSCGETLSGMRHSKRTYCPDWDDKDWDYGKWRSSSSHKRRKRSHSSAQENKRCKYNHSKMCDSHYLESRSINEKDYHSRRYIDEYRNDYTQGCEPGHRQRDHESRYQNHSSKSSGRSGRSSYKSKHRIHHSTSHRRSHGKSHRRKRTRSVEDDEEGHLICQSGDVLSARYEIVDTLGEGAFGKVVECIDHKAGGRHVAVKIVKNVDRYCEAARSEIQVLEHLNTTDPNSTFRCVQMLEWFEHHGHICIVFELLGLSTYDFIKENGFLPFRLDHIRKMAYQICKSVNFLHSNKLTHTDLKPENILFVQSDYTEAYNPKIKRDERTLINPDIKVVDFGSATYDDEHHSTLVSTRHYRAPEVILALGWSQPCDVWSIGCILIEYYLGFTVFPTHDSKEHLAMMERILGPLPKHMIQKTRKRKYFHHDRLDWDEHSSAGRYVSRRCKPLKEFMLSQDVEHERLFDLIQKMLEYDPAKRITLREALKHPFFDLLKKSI
T2 sequence (Q9Y463 whole entry): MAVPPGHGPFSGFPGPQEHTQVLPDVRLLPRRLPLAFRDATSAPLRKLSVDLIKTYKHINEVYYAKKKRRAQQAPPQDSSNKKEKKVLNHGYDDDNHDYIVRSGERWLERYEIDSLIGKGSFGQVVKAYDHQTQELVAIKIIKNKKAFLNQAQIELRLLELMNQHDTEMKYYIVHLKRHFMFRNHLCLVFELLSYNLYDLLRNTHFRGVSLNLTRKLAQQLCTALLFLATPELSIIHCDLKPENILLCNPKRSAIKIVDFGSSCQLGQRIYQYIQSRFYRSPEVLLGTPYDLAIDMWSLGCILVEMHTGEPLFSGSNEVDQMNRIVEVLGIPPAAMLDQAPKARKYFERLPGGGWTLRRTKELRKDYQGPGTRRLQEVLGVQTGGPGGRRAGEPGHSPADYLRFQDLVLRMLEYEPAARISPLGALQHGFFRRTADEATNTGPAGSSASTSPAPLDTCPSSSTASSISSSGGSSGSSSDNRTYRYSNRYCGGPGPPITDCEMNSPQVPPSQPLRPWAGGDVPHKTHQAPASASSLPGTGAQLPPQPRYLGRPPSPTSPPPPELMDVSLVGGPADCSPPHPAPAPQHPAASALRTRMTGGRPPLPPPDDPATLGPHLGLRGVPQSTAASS
T4 sequence (P50750 whole entry): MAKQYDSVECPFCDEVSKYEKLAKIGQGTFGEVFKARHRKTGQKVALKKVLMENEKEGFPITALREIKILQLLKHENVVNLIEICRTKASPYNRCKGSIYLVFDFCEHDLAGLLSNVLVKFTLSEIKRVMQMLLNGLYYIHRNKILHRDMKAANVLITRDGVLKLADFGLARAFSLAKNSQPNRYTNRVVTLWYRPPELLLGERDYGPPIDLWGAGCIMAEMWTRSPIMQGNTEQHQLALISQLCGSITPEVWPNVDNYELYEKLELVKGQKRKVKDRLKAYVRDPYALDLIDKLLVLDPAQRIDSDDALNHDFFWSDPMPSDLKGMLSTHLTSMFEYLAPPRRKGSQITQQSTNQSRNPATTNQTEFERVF
T4 sequence (O60563 whole entry partner): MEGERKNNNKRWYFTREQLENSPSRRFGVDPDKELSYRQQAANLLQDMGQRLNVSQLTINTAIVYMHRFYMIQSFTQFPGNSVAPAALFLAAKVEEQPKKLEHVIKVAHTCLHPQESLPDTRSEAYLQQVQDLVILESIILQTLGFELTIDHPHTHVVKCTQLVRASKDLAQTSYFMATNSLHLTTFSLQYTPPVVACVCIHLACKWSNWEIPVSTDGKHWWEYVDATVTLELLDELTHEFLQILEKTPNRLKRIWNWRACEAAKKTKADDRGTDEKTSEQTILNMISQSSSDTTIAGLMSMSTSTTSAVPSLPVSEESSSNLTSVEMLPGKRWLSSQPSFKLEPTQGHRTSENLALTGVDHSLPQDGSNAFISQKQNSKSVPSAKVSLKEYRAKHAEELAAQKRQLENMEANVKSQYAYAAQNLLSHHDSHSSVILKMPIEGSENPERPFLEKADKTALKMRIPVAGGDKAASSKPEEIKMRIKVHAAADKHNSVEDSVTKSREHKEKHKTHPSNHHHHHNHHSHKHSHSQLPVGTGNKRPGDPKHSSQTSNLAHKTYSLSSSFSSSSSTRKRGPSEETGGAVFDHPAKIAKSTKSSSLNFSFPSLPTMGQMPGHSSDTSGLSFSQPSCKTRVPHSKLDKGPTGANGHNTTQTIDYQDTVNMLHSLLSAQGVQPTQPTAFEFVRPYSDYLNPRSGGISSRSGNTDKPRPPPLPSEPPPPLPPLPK

SMILES | IC50 [1] | IC50 (DYRK1B) | IC50 (CLK1) | IC50 (CDK9) | IC50 (DYRK1A [2]) | IC50 (DYRK1A [3])
Cc1nc2ccc(-c3cc(N)nc(N)c3)nc2n1CCc1ccc2c(c1)OCO2 [Example 73, 4-(3-[2-(1,3-benzodioxol-5-yl)ethyl]-2-methyl-3H-imidazo[4,5-b]pyridin-5-yl)pyridine-2,6-diamine] | 0.009 µM | 0.008 µM | 0.019 µM | 4.66 µM | 0.004 µM | 0.065 µM
Cc1nc2ccc(-c3cc(N)nc(N)c3)nc2n1CC1CC1(Cl)Cl (stereo not drawn) [Example 74, 4-{3-[(2,2-dichlorocyclopropyl)methyl]-2-methyl-3H-imidazo[4,5-b]pyridin-5-yl}pyridine-2,6-diamine] | 0.014 µM | 0.01 µM | 0.021 µM | 0.476 µM | 0.006 µM | 0.092 µM
Cc1nc2ccc(-c3cc(N)nc(N)c3)nc2n1CCC(C)C [Example 75, 4-[2-methyl-3-(3-methylbutyl)-3H-imidazo[4,5-b]pyridin-5-yl]pyridine-2,6-diamine] | 0.012 µM | 0.006 µM | 0.019 µM | 0.843 µM | 0.003 µM | 0.035 µM
Cc1nc2ccc(-c3cc(N)nc(N)c3)nc2n1CC1CCCC1 [Example 89, 4-[3-(cyclopentylmethyl)-2-methyl-3H-imidazo[4,5-b]pyridin-5-yl]pyridine-2,6-diamine] | 0.014 µM | 0.009 µM | 0.024 µM | 1.46 µM | 0.004 µM | 0.068 µM
Cc1nc2ccc(-c3cc(N)nc(N)c3)nc2n1CCC1CCCC1 [Example 92, 4-[3-(2-cyclopentylethyl)-2-methyl-3H-imidazo[4,5-b]pyridin-5-yl]pyridine-2,6-diamine] | 0.006 µM | 0.007 µM | 0.017 µM | 0.564 µM | 0.002 µM | 0.058 µM
CCCCCCn1c(C)nc2ccc(-c3cc(N)nc(N)c3)nc21 [Example 94, 4-(3-hexyl-2-methyl-3H-imidazo[4,5-b]pyridin-5-yl)pyridine-2,6-diamine] | 0.005 µM | 0.007 µM | 0.016 µM | 1.08 µM | 0.003 µM | 0.017 µM
COC1CCCCC1CCn1c(C)nc2ccc(-c3cc(N)nc(N)c3)nc21 (stereo not drawn) [Example 95, 4-{3-[2-(2-methoxycyclohexyl)ethyl]-2-methyl-3H-imidazo[4,5-b]pyridin-5-yl}pyridine-2,6-diamine] | 0.012 µM | 0.011 µM | 0.029 µM | 1.8 µM | 0.003 µM | 0.021 µM
Cc1nc2ccc(-c3cc(N)nc(N)c3)nc2n1CC(F)F [Example 115, 4-[3-(2,2-difluoroethyl)-2-methyl-3H-imidazo[4,5-b]pyridin-5-yl]pyridine-2,6-diamine] | 0.013 µM | 0.006 µM | 0.028 µM | 5.69 µM | 0.003 µM | 0.034 µM
CCCCc1nc2ccc(-c3cc(N)nc(N)c3)nc2n1CCCC [Example 144, 4-(2,3-dibutyl-3H-imidazo[4,5-b]pyridin-5-yl)pyridine-2,6-diamine] | 0.016 µM | 0.012 µM | 0.238 µM | > 3 µM | 0.008 µM | 0.128 µM
CCCCn1c(C)nc2ccc(-c3cc(N)nc(N)c3)nc21 [Example 148, 4-(3-butyl-2-methyl-3H-imidazo[4,5-b]pyridin-5-yl)pyridine-2,6-diamine] | 0.007 µM | 0.006 µM | 0.016 µM | 1.24 µM | 0.002 µM | 0.1 µM
COCCCCn1c(C)nc2ccc(-c3cc(N)nc(N)c3)nc21 [Example 151, 4-[3-(4-methoxybutyl)-2-methyl-3H-imidazo[4,5-b]pyridin-5-yl]pyridine-2,6-diamine] | 0.013 µM | 0.008 µM | 0.019 µM | 2.87 µM | 0.004 µM | 0.17 µM
CCCCn1c(CC)nc2ccc(-c3cc(N)nc(N)c3)nc21 [Example 157, 4-(3-butyl-2-ethyl-3H-imidazo[4,5-b]pyridin-5-yl)pyridine-2,6-diamine] | 0.021 µM | 0.003 µM | 0.058 µM | > 10 µM | 0.011 µM | 0.153 µM
Cc1nc2ccc(-c3cc(N)nc(N)c3)nc2n1C[C@H](C)Oc1cccc(Br)n1 [Example 180] | 0.013 µM | 0.01 µM | 0.016 µM | 0.467 µM | 0.005 µM | 0.044 µM

The next lines start with the values.

IC50 [1] | IC50 (DYRK1B) | IC50 (CLK1) | IC50 (CDK9) | IC50 (DYRK1A [2]) | IC50 (DYRK1A [3]) | SMILES
0.015 µM | 0.014 µM | 0.09 µM | > 10 µM | 0.01 µM | 0.184 µM | COc1cc(Cn2c(C)nc3ccc(-c4cc(N)nc(N)c4)nc32)ccn1 [Example 72, 4-{3-[(2-methoxypyridin-4-yl)methyl]-2-methyl-3H-imidazo[4,5-b]pyridin-5-yl}pyridine-2,6-diamine]
0.013 µM | 0.008 µM | 0.016 µM | 2.92 µM | 0.004 µM | 0.062 µM | Cc1nc2ccc(-c3cc(N)nc(N)c3)nc2n1CCc1cccc(C(F)(F)F)c1 [Example 91, 4-(2-methyl-3-{2-[3-(trifluoromethyl)phenyl]ethyl}-3H-imidazo[4,5-b]pyridin-5-yl)pyridine-2,6-diamine]
0.011 µM | 0.01 µM | 0.02 µM | 3.09 µM | 0.004 µM | 0.075 µM | Cc1nc2ccc(-c3cc(N)nc(N)c3)nc2n1CCc1ccc(F)cc1 [Example 96, 4-{3-[2-(4-fluorophenyl)ethyl]-2-methyl-3H-imidazo[4,5-b]pyridin-5-yl}pyridine-2,6-diamine]
0.01 µM | 0.003 µM | 0.016 µM | 1.02 µM | 0.001 µM | 0.035 µM | Cc1nc2ccc(-c3cc(N)nc(N)c3)nc2n1CCOc1ccccc1 [Example 153, 4-[2-methyl-3-(2-phenoxyethyl)-3H-imidazo[4,5-b]pyridin-5-yl]pyridine-2,6-diamine]
0.012 µM | 0.007 µM | 0.016 µM | 1.1 µM | 0.003 µM | 0.053 µM | Cc1nc2ccc(-c3cc(N)nc(N)c3)nc2n1CCOc1cccc(F)c1 [Example 199, 4-{3-[2-(3-fluorophenoxy)ethyl]-2-methyl-3H-imidazo[4,5-b]pyridin-5-yl}pyridine-2,6-diamine]
0.018 µM | 0.01 µM | 0.02 µM | 1.52 µM | 0.005 µM | 0.069 µM | Cc1nc2ccc(-c3cc(N)nc(N)c3)nc2n1CCOc1cccc(Cl)c1 [Example 200]
0.017 µM | 0.007 µM | 0.028 µM | > 3 µM | 0.005 µM | 0.094 µM | COc1ccccc1OCCn1c(C)nc2ccc(-c3cc(N)nc(N)c3)nc21 [Example 206, 4-{3-[2-(2-methoxyphenoxy)ethyl]-2-methyl-3H-imidazo[4,5-b]pyridin-5-yl}pyridine-2,6-diamine]
0.008 µM | 0.006 µM | 0.018 µM | 1.01 µM | 0.003 µM | 0.047 µM | Cc1nc2ccc(-c3cc(N)nc(N)c3)nc2n1CCOc1ccc2[nH]ccc2c1 [Example 210, 4-{3-[2-(1H-indol-5-yloxy)ethyl]-2-methyl-3H-imidazo[4,5-b]pyridin-5-yl}pyridine-2,6-diamine]
